In brackets after ≈: the same amount, converted by molar mass. Activity calls are given as the source filed them. No cut-off for these calls is given here.
Legend:
[1] = tested on: Lipomyces lipofer; assay: Antifungal activity against Lipomyces lipofer NCIM 3252 at 1000 ug/disk after 72 hr by disk diffusion method; format: functional; details: NCIM 3252, 72 h, read-out: DIZ
[2] = tested on: Lipomyces lipofer; assay: Antifungal activity against Lipomyces lipofer NCIM 3252 at 500 ug/disk after 72 hr by disk diffusion method; format: functional; details: NCIM 3252, 72 h, read-out: DIZ
[3] = tested on: Candida albicans; assay: Antifungal activity against Candida albicans NCIM 3471 at 1000 ug/disk after 72 hr by disk diffusion method; format: functional
[4] = tested on: Candida albicans; assay: Antifungal activity against Candida albicans NCIM 3471 at 500 ug/disk after 72 hr by disk diffusion method; format: functional
[5] = tested on: Rhodotorula mucilaginosa; assay: Antifungal activity against Rhodotorula mucilaginosa NCIM 3174 at 1000 ug/disk after 72 hr by disk diffusion method; format: functional; details: for zone of inhibition at 1000 µg/disc: NCIM 3174, 72 h, read-out: DIZ
[6] = tested on: Rhodotorula mucilaginosa; assay: Antifungal activity against Rhodotorula mucilaginosa NCIM 3174 at 500 ug/disk after 72 hr by disk diffusion method; format: functional
[7] = tested on: Aspergillus flavus; assay: Antifungal activity against Aspergillus flavus NCIM 535 at 1000 ug/disk after 72 hr by disk diffusion method; format: functional; details: NCIM 535, 72 h, read-out: DIZ
[8] = tested on: Aspergillus flavus; assay: Antifungal activity against Aspergillus flavus NCIM 535 at 500 ug/disk after 72 hr by disk diffusion method; format: functional
[9] = tested on: Aspergillus niger; assay: Antifungal activity against Aspergillus niger NCIM 1196 at 1000 ug/disk after 72 hr by disk diffusion method; format: functional; details: NCIM 1196, 72 h, read-out: DIZ
[10] = tested on: Aspergillus niger; assay: Antifungal activity against Aspergillus niger NCIM 1196 at 500 ug/disk after 72 hr by disk diffusion method; format: functional; details: NCIM 1196, 72 h, read-out: DIZ
[11] = tested on: Penicillium chrysogenum; assay: Antifungal activity against Penicillium chrysogenum NCIM 707 at 1000 ug/disk after 72 hr by disk diffusion method; format: functional; details: for zone of inhibition at 1000 µg/disc: NCIM 707, 72 h, read-out: DIZ
[12] = tested on: Penicillium chrysogenum; assay: Antifungal activity against Penicillium chrysogenum NCIM 707 at 500 ug/disk after 72 hr by disk diffusion method; format: functional
[13] = tested on: Streptomyces albus; assay: Antibacterial activity against Streptomyces albus NCIM 2178 at 1000 ug/disk after 24 hr by disk diffusion method; format: functional; details: for zone of inhibition at 1000 µg/disc: NCIM 2178, 24 h, read-out: DIZ
[14] = tested on: Streptomyces albus; assay: Antibacterial activity against Streptomyces albus NCIM 2178 at 500 ug/disk after 24 hr by disk diffusion method; format: functional, organism-based
[15] = tested on: Bacillus cereus; assay: Antibacterial activity against Bacillus cereus NCIM 2155 at 1000 ug/disk after 24 hr by disk diffusion method; format: functional; details: NCIM 2155, 24 h, read-out: DIZ
[16] = tested on: Bacillus cereus; assay: Antibacterial activity against Bacillus cereus NCIM 2155 at 500 ug/disk after 24 hr by disk diffusion method; format: functional; details: for zone of inhibition at 500 µg/disc: NCIM 2155, 24 h, read-out: DIZ
[17] = tested on: Bacillus subtilis; assay: Antibacterial activity against Bacillus subtilis NCIM 2063 at 1000 ug/disk after 24 hr by disk diffusion method; format: functional; details: NCIM 2063, 24 h, read-out: DIZ
[18] = tested on: Bacillus subtilis; assay: Antibacterial activity against Bacillus subtilis NCIM 2063 at 500 ug/disk after 24 hr by disk diffusion method; format: functional; details: for zone of inhibition at 500 µg/disc: NCIM 2063, 24 h, read-out: DIZ
[19] = tested on: Klebsiella aerogenes; assay: Antibacterial activity against Enterobacter aerogenes NCIM 2239 at 1000 ug/disk after 24 hr by disk diffusion method; format: functional; details: NCIM 2239, 24 h, read-out: DIZ
[20] = tested on: Klebsiella aerogenes; assay: Antibacterial activity against Enterobacter aerogenes NCIM 2239 at 500 ug/disk after 24 hr by disk diffusion method; format: functional; details: for zone of inhibition at 500 µg/disc: NCIM 2239, 24 h, read-out: DIZ
[21] = tested on: Pseudomonas aeruginosa; assay: Antibacterial activity against Pseudomonas aeruginosa NCIM 2200 at 1000 ug/disk after 24 hr by disk diffusion method; format: functional; details: NCIM 2200, 24 h, read-out: DIZ
[22] = tested on: Pseudomonas aeruginosa; assay: Antibacterial activity against Pseudomonas aeruginosa NCIM 2200 at 500 ug/disk after 24 hr by disk diffusion method; format: functional
[23] = tested on: Escherichia coli; assay: Antibacterial activity against Escherichia coli NCIM 2065 at 1000 ug/disk after 24 hr by disk diffusion method; format: functional; details: NCIM 2065, 24 h, read-out: DIZ
[24] = tested on: Escherichia coli; assay: Antibacterial activity against Escherichia coli NCIM 2065 at 500 ug/disk after 24 hr by disk diffusion method; format: functional; details: NCIM 2065, 24 h, read-out: DIZ
[25] = tested on: Bacillus subtilis; assay: Antibacterial activity against Bacillus subtilis NCIM 2063 after 24 hr by broth dilution assay; format: functional; details: NCIM 2063, 24 h
[26] = tested on: Klebsiella aerogenes; assay: Antibacterial activity against Enterobacter aerogenes NCIM 2239 after 24 hr by broth dilution assay; format: functional; details: NCIM 2239, 24 h
[27] = tested on: Pseudomonas aeruginosa; assay: Antibacterial activity against Pseudomonas aeruginosa NCIM 2200 after 24 hr by broth dilution assay; format: functional; details: NCIM 2200, 24 h
[28] = tested on: Escherichia coli; assay: Antibacterial activity against Escherichia coli NCIM 2065 after 24 hr by broth dilution assay; format: functional; details: NCIM 2065, 24 h
[29] = tested on: Lipomyces lipofer; assay: Antifungal activity against Lipomyces lipofer NCIM 3252 after 72 hr by broth dilution assay; format: functional; details: NCIM 3252, 72 h
[30] = tested on: Aspergillus niger; assay: Antifungal activity against Aspergillus niger NCIM 1196 after 72 hr by broth dilution assay; format: functional; details: NCIM 1196, 72 h
[31] = tested on: Bacillus cereus; assay: Antibacterial activity against Bacillus cereus NCIM 2155 after 24 hr by broth dilution assay; format: functional; details: NCIM 2155, 24 h
[32] = tested on: Streptomyces albus; assay: Antibacterial activity against Streptomyces albus NCIM 2178 after 24 hr by broth dilution assay; format: functional; details: NCIM 2178, 24 h

Row | MIC [25] [µg/mL] | MIC [26] [µg/mL] | MIC [27] [µg/mL] | MIC [28] [µg/mL] | Structure (SMILES) | zone of inhibition at 1000 µg/disc [1] [mm] | zone of inhibition at 500 µg/disc [2] [mm] | diameter of the inhibition zone (DIZ) [4] | diameter of the inhibition zone (DIZ) [6] | zone of inhibition at 1000 µg/disc [7] [mm] | diameter of the inhibition zone (DIZ) [8] | zone of inhibition at 1000 µg/disc [9] [mm] | zone of inhibition at 500 µg/disc [10] [mm] | diameter of the inhibition zone (DIZ) [12] | diameter of the inhibition zone (DIZ) [14] | zone of inhibition at 1000 µg/disc [15] [mm] | zone of inhibition at 1000 µg/disc [17] [mm] | zone of inhibition at 1000 µg/disc [19] [mm] | zone of inhibition at 1000 µg/disc [21] [mm] | zone of inhibition at 1000 µg/disc [23] [mm] | zone of inhibition at 500 µg/disc [24] [mm] | also measured
1 | 31.2 (≈ 128 µM) | 7.8 (≈ 32.1 µM) | 62.5 (≈ 257 µM) | 31.2 (≈ 128 µM) | Cc1ccc2nc3[nH]c(=S)[nH]c(=O)c3cc2c1 | 10 | 9 | inactive | inactive | 8 | inactive | 14 | 11 | inactive | inactive | 10 | 12 | 13 | 12 | 11 | 9 | diameter of the inhibition zone (DIZ) [3]: inactive; zone of inhibition at 1000 µg/disc [5]: 9 mm; diameter of the inhibition zone (DIZ) [11]: inactive; zone of inhibition at 1000 µg/disc [13]: 9 mm; zone of inhibition at 500 µg/disc [16]: 8 mm; diameter of the inhibition zone (DIZ) [18]: inactive; zone of inhibition at 500 µg/disc [20]: 9 mm; diameter of the inhibition zone (DIZ) [22]: inactive; MIC [29]: 62.5 µg/mL (≈ 257 µM); MIC [30]: 3.9 µg/mL (≈ 16 µM); MIC [31]: 62.5 µg/mL (≈ 257 µM)
2 | 31.2 (≈ 128 µM) | 15.6 (≈ 64.1 µM) | 6.5 (≈ 26.7 µM) | 31.2 (≈ 128 µM) | Cc1cccc2cc3c(=O)[nH]c(=S)[nH]c3nc12 | 10 | 8 | inactive | inactive | 10 | inactive | 16 | 12 | inactive | inactive | 13 | 12 | 10 | 12 | 11 | 8 | diameter of the inhibition zone (DIZ) [3]: inactive; diameter of the inhibition zone (DIZ) [5]: inactive; zone of inhibition at 1000 µg/disc [11]: 9 mm; zone of inhibition at 1000 µg/disc [13]: 12 mm; diameter of the inhibition zone (DIZ) [16]: inactive; zone of inhibition at 500 µg/disc [18]: 9 mm; diameter of the inhibition zone (DIZ) [20]: inactive; diameter of the inhibition zone (DIZ) [22]: inactive; MIC [29]: 125 µg/mL (≈ 514 µM); MIC [30]: 3.9 µg/mL (≈ 16 µM); MIC [32]: 125 µg/mL (≈ 514 µM); MIC [31]: 31.2 µg/mL (≈ 128 µM)
3 | 3.9 (≈ 14.8 µM) | 31.2 (≈ 118 µM) | 7.8 (≈ 29.6 µM) | 62.5 (≈ 237 µM) | O=c1[nH]c(=S)[nH]c2nc3ccc(Cl)cc3cc12 | 15 | 9 | inactive | inactive | 10 | inactive | 14 | 11 | inactive | inactive | 13 | 14 | 10 | 13 | 10 | 8 | zone of inhibition at 1000 µg/disc ([3]; NCIM 3471, 72 h, read-out: DIZ): 11 mm; zone of inhibition at 1000 µg/disc [5]: 12 mm; zone of inhibition at 1000 µg/disc [11]: 10 mm; diameter of the inhibition zone (DIZ) [13]: inactive; zone of inhibition at 500 µg/disc [16]: 9 mm; zone of inhibition at 500 µg/disc [18]: 11 mm; zone of inhibition at 500 µg/disc [20]: 8 mm; zone of inhibition at 500 µg/disc ([22]; NCIM 2200, 24 h, read-out: DIZ): 10 mm; MIC [29]: 7.8 µg/mL (≈ 29.6 µM); MIC [30]: 3.9 µg/mL (≈ 14.8 µM); MIC [31]: 62.5 µg/mL (≈ 237 µM)

— ChEMBL document CHEMBL3045679, “Microwave-assisted synthesis and pharmacological studies of novel 5-deazaalloxazine derivatives” (2012)
